Measurements: patent US8058276B2, “Heterobicyclic carboxamides as inhibitors for kinases” (Novartis AG, priority 2006, dated 2011)

Row | melting point | SMILES
1 | 237 to 239 °C | Nc1nccc(Oc2ccc3c(C(=O)Nc4ccc(F)c(C(F)(F)F)c4)nsc3c2)n1 [Example 6, 6-(2-Amino-pyrimidin-4-yloxy)-benzo[d]isothiazole-3-carboxylic acid (4-fluoro-3-trifluoromethyl-phenyl)-amide]
2 | 215 to 217 °C | CN1CCN(Cc2ccc(NC(=O)c3nsc4cc(Oc5ccnc(N)n5)ccc34)cc2C(F)(F)F)CC1 [Example 7, 6-(2-Amino-pyrimidin-4-yloxy)-benzo[d]isothiazole-3-carboxylic acid [4-(4-methyl-piperazin-1-ylmethyl)-3-trifluoromethyl-phenyl]-amide]
3 | 102 to 104 °C | Nc1nccc(Oc2ccc3c(C(=O)Nc4cccc(C(F)(F)F)c4)cnn3c2)n1 [Example 15, 6-(2-Amino-pyrimidin-4-yloxy)-pyrazolo[1,5-a]pyridine-3-carboxylic acid (3-trifluoromethyl-phenyl)-amide]
4 | 138 to 140 °C | O=C(Nc1ccc(F)c(C(F)(F)F)c1)c1csc2cc(Oc3cc(CO)ncn3)ccc12 [Example 19, 6-(6-Hydroxymethyl-pyrimidin-4-yloxy)-benzo[b]thiophene-3-carboxylic acid (4-fluoro-3-trifluoromethyl-phenyl)-amide]
5 | 181 to 182 °C | O=C(Nc1cccc(C(F)(F)F)c1)c1coc2cc(Oc3cc(CO)ncn3)ccc12 [Example 22, 6-(6-Hydroxymethyl-pyrimidin-4-yloxy)-benzofuran-3-carboxylic acid (3-trifluoromethyl-phenyl)-amide]
